The source made the active and inactive calls.
Tests used:
Cytochrome P450 1A2 = target: T1, Cytochrome P450 1A2 (Homo sapiens, UniProt P05177);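 also: PubChem cytochrome P450 panel assay, CYP1A2 panel member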
T1 sequence (P05177 whole entry): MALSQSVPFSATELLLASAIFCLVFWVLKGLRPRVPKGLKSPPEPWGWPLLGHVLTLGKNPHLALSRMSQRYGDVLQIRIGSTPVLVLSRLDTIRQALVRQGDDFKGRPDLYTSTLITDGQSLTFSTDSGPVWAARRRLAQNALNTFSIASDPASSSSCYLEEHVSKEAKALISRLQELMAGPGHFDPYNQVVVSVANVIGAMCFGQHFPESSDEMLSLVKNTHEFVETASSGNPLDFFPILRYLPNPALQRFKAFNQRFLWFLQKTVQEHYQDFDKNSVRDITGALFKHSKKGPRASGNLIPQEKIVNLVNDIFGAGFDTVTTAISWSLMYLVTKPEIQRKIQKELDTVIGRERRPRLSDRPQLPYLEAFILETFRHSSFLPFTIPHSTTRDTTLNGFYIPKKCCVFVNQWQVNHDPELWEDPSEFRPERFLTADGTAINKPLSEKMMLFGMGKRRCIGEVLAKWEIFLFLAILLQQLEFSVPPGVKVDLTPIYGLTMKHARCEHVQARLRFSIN

Cytochrome P450 2C19 = Cytochrome P450 2C19 (Homo sapiens, UniProt P33261); test: Cytochrome panel assay with activity outcomes. Panel member name: p450-cyp2c19 Compounds with AC50 equal or less than 10 uM are considered active; type: functional
Cytochrome P450 2D6 = Cytochrome P450 2D6 (Homo sapiens, UniProt P10635);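 also: CYP2D6 member of a cytochrome P450 panel assay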
Cytochrome P450 3A4 = Cytochrome P450 3A4 (Homo sapiens, UniProt P08684);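 also: CYP3A4 tested as one member of a cytochrome P450 panel screen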
[1] = target: T2, Endoribonuclease toxin MazF (Escherichia coli K-12, UniProt P0AE70); test: fluorescent RNA oligo signal without MazF, dose response, counter-screen for MazEF activator project, biochemical, fluorescence, single-stranded RNase substrate (AID 588502); type: functional
T2 sequence (P0AE70 whole entry): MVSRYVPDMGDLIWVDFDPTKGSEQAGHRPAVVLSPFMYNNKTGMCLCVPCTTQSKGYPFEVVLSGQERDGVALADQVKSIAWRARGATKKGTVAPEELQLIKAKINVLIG

[2] = target: T3, RNA-binding protein pos-1 (Caenorhabditis elegans, UniProt G5EF15); test: inhibitors of POS-1/mex-3 RNA binding, dose response, biochemical, fluorescence polarization (AID 1964);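 also: purified POS-1 fused to maltose binding protein made in E. coli; potency of compounds blocking POS-1 binding to fluorescent RNA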
T3 sequence (G5EF15 whole entry): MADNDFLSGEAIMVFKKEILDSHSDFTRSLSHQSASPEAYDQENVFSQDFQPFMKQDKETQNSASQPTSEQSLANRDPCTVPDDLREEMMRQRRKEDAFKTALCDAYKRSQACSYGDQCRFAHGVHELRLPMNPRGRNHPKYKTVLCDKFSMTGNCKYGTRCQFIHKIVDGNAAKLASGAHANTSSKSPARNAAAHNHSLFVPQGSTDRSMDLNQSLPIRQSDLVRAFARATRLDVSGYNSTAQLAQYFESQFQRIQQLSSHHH

[3] = target: T2, Endoribonuclease toxin MazF; test: MazF toxin RNase activators, dose response, biochemical, fluorescence, single-stranded RNA substrate, uHTS hits (AID 588481); type: functional
[4] = target: T4, Zinc finger protein mex-5 (Caenorhabditis elegans, UniProt Q9XUB2); test: MEX-5/TCR-2 RNA interaction inhibitors, dose response, biochemical, C. elegans, fluorescence polarization (AID 1960)
T4 sequence (Q9XUB2 whole entry): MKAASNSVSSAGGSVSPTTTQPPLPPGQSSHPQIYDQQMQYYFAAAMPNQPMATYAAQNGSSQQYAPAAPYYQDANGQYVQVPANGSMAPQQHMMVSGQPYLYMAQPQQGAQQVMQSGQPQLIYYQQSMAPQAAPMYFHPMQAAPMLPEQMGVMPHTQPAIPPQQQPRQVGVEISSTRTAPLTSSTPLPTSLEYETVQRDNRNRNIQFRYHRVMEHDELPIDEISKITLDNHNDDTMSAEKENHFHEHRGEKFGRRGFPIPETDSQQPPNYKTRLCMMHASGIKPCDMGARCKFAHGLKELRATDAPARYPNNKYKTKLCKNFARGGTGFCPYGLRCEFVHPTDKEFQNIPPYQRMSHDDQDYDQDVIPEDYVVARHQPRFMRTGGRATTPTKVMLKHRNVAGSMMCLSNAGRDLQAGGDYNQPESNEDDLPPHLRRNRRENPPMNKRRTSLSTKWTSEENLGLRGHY

[5] = target: UDP-galactopyranose mutase (Mycobacterium tuberculosis, UniProt P9WIQ1); test: Inhibitors of Mycobacterium tuberculosis UDP-galactopyranose mutase (UGM) enzyme Measured in Biochemical System Using Plate Reader - 2105-02_Inhibitor_Dose_CherryPick_Activity. [Related pubchem assays (depositor defined):AID504439]
Procathepsin L = Procathepsin L (Homo sapiens, UniProt P07711); test: cathepsin L inhibitors, dose response, counter-screen for M1/M17 aminopeptidase inhibitor project, biochemical, QFRET, 1536-well (AID 2214)
Leucine aminopeptidase = target: T5, Leucine aminopeptidase (Plasmodium falciparum 3D7, UniProt Q8IL11); test: P. falciparum M17LAP inhibitors, primary screen, biochemical, fluorogenic H-Leu-NHMec substrate, 1536-well (AID 1619); type: functional
T5 sequence (Q8IL11 whole entry): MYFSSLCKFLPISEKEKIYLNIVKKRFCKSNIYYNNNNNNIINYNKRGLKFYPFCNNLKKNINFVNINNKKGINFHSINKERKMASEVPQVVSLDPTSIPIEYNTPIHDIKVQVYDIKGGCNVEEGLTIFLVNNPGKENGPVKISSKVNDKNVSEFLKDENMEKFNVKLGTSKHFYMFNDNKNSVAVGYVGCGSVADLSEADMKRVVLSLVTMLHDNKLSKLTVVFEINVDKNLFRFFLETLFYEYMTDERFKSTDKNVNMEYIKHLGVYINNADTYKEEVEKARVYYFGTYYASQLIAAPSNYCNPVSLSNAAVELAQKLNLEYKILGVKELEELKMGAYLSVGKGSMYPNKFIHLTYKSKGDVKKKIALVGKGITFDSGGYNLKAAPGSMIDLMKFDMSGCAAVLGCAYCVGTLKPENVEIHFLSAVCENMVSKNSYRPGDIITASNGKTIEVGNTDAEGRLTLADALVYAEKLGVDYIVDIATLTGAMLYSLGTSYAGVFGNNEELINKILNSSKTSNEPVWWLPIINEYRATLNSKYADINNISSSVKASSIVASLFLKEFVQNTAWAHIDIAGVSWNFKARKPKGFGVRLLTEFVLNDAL

Phosphomannomutase 2 = Phosphomannomutase 2 (Homo sapiens, UniProt O15305); test: Counter screen SAR assay for PMM2 inhibitors via a fluorescence intensity assay. [Related pubchem assays (depositor defined):AID1545, AID1574]
Aspartyl aminopeptidase = target: T6, Aspartyl aminopeptidase (Plasmodium falciparum 3D7, UniProt Q8I2J3); test: Counterscreen for inhibitors of M1 and M17 aminopeptidases: QFRET-based biochemical high throughput dose response assay for inhibitors of the Plasmodium falciparum M18 Aspartyl Aminopeptidase (PFM18AAP). [Related PubChem assays: 1619 (Screening assay (M17LAP inhibitors).), 1445 (Screening assay (M1AAP inhibitors).)]
T6 sequence (Q8I2J3 whole entry): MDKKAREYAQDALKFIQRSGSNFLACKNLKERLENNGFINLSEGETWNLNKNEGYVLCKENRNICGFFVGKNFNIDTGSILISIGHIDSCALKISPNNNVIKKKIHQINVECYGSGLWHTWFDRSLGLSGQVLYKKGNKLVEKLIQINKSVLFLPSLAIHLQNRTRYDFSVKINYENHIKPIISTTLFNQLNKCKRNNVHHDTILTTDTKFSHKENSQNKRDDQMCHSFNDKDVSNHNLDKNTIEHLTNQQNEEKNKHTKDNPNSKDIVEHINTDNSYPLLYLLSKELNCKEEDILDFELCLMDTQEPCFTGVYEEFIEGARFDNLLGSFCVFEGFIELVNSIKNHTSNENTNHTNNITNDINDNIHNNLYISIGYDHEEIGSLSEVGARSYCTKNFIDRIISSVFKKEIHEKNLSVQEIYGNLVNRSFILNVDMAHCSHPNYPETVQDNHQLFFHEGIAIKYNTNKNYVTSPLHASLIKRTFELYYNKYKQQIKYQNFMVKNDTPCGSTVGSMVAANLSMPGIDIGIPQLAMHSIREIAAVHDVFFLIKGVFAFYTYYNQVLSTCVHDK

Escherichia coli = test: microbe, parasite or virus in culture
[6] = target: T7, Mannose-6-phosphate isomerase (Homo sapiens, UniProt P34949); test: PMI enzyme inhibitors, confirmation, biochemical, fluorescence intensity (AID 1535)
T7 sequence (P34949 whole entry): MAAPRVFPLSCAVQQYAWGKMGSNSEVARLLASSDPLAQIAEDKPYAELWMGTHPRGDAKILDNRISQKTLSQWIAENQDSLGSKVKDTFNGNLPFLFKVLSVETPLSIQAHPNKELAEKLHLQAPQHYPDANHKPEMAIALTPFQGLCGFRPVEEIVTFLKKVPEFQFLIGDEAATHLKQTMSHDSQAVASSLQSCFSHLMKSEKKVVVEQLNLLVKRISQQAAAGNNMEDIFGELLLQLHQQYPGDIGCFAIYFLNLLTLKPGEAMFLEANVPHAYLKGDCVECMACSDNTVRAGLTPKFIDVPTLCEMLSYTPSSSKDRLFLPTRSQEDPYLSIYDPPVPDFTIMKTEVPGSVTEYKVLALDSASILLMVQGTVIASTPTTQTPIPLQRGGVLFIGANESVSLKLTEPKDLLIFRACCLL

[7] = target: DNA dC->dU-editing enzyme APOBEC-3A (Homo sapiens, UniProt P31941); test: APOBEC3A DNA deaminase inhibitors, dose response, biochemical (AID 504722); type: functional
Chain of DNA dC->dU-editing enzyme APOBEC-3A (P31941 whole entry): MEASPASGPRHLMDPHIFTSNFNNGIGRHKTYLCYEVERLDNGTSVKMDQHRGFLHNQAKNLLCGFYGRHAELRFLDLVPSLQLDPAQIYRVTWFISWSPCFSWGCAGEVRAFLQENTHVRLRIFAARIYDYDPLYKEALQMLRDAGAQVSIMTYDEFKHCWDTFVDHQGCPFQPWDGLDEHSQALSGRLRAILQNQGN

Chain of Cytochrome P450 2C19 (P33261 whole entry): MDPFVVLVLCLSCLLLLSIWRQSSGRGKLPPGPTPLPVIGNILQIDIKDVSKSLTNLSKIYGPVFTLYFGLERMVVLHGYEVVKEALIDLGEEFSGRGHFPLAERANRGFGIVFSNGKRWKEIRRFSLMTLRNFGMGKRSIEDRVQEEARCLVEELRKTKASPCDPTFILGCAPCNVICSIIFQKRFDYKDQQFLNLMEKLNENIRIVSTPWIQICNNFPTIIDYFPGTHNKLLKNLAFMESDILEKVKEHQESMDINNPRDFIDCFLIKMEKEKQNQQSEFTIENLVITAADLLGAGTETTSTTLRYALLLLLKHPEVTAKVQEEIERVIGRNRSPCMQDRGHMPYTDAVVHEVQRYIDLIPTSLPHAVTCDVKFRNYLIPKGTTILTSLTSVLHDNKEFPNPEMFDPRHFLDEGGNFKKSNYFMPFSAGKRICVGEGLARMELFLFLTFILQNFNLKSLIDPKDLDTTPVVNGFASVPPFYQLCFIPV
Chain of Cytochrome P450 3A4 (P08684 whole entry): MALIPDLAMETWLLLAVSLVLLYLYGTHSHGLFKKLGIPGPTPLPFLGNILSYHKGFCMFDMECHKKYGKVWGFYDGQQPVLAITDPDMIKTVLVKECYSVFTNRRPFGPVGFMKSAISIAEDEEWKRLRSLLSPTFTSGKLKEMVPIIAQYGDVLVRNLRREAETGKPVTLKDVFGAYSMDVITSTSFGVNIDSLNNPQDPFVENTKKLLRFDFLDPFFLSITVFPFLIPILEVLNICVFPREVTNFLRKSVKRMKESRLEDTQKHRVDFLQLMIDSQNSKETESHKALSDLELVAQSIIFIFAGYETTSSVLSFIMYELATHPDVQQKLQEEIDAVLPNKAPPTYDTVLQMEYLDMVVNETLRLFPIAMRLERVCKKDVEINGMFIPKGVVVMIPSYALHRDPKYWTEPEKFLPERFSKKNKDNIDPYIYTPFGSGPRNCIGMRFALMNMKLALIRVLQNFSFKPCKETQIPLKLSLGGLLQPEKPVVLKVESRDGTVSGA
Chain of Cytochrome P450 2D6 (P10635 whole entry): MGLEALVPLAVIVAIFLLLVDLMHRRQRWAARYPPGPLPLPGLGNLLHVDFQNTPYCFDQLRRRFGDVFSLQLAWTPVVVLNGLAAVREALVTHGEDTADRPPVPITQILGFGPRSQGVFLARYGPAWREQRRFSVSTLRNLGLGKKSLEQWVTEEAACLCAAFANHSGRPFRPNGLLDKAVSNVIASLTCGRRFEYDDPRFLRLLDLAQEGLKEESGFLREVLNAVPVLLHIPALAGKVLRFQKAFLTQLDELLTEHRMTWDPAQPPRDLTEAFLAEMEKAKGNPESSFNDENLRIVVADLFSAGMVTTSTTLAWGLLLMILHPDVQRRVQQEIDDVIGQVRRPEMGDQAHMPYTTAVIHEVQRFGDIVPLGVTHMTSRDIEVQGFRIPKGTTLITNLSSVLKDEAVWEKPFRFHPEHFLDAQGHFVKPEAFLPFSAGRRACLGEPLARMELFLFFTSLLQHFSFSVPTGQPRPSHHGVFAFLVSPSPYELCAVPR
Chain of Procathepsin L (P07711 whole entry): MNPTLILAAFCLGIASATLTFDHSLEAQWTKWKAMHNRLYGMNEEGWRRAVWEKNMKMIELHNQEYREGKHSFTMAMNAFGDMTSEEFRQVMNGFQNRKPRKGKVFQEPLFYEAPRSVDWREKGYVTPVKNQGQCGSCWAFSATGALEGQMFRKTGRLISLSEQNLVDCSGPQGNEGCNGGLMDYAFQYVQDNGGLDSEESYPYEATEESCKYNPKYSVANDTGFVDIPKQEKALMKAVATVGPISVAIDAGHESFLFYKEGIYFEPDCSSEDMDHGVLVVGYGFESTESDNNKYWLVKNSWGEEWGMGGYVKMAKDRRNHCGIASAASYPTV
Chain of UDP-galactopyranose mutase (P9WIQ1 whole entry): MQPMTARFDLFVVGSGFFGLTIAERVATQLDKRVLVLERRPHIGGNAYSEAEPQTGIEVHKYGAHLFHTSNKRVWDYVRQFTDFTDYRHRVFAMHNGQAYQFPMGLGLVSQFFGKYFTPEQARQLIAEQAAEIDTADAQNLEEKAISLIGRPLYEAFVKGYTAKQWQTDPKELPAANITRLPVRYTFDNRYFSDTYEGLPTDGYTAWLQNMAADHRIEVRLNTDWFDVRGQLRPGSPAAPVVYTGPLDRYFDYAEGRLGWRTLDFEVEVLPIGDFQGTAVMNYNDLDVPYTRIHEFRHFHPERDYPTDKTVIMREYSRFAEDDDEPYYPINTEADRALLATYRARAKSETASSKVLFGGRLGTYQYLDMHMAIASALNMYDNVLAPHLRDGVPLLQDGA
Chain of Phosphomannomutase 2 (O15305 whole entry): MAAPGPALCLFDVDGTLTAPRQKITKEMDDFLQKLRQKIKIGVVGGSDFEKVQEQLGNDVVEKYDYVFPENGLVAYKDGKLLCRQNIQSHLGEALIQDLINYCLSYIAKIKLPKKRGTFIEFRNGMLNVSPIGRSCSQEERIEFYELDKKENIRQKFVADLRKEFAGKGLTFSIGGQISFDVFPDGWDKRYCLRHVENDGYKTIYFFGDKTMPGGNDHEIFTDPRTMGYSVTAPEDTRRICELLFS

CCOC(=O)[C@H](CCc1ccccc1)N[C@@H](C)C(=O)N1[C@H](C(=O)O)C[C@H]2CCC[C@@H]21 was tested, and the AC50 (Cytochrome P450 1A2) was “inactive” and the AC50 (Cytochrome P450 2C19) was “inactive”.
In the case of O=C(c1cccc(F)c1)N1CCC2(CC1)CCN(c1ccccn1)CC2, the AC50 (Cytochrome P450 2D6) is reported as 20 µM (inconclusive) and the AC50 (Cytochrome P450 3A4) is reported as “inconclusive”.
For Cc1ccc(Cl)c2c(N=Nc3ccccc3)c(O)[nH]c12, the EC50 [1] was 8.15 µM (active), the EC50 [2] was 18.6 µM (active) and the EC50 [3] was 19.1 µM (active). The EC50 [4] was > 300 µM (inconclusive) and the AC50 [5] was 113 µM (active).
With Sc1n[nH]c(-c2ccccc2Br)n1 the IC50 (Procathepsin L) was > 59.6 µM (not active), the IC50 (Leucine aminopeptidase) was 4.67 µM (active) and the IC50 (Phosphomannomutase 2) was > 100 µM (inactive). For the same molecule, the IC50 (Aspartyl aminopeptidase) was 19.3 µM (not active), the AC50 (Escherichia coli) was 30.2 µM (active) and the IC50 [6] was 37.6 µM (active). The IC50 [7] was > 100 µM (inactive).
